The values that follow come from US9351515B2, “Nutritional composition and methods of making and using same” (Georgia-Pacific Panel Products LLC, priority 2009, dated 2016).

This assay deals with green fluorescent protein labeled Salmonella enterica serovar Typhimurium. The assay is described as follows: Adherence of Salmonella to porcine derived IPEC J2 jejunal cells (Example 4). The format is cell-based. The settings on record: bacteria pre-exposed to 0.05M methyl α-D mannoside. As to the method: Porcine derived IPEC J2 jejunal cells were seeded onto 8-well chamber slides. […] The cells were exposed to suspensions containing a green fluorescent protein labeled Salmonella enterica serovar Typhimurium previously exposed for 10 minutes to an equal volume of water or to a suspension containing 17.5 mg Nutritional Composition/ml or 0.05M methyl α-D_mannoside. After the addition of treated or untreated bacteria, the chamber slides were incubated to allow attachment to occur and the wells of each slide were washed. Slides were examined by phase contrast microscopy at 1,000× magnification, and numbers of attached cells of the green fluorescent protein labeled Salmonella enterica serovar Typhimurium were counted on 100 randomly selected IPEC J2 cells.

Structures are written as SMILES.

Take `CO[C@H]1O[C@H](CO)[C@@H](O)[C@H](O)[C@@H]1O` [methyl α-D mannoside, methyl α-D-mannoside]: the “Salmonella binding to the IPEC J2 cells” value is recorded as “no effect”.
